Measurements: ChEMBL document CHEMBL5512601, “Small-molecule inhibitors targeting apoptosis signal-regulated kinase 1” (Eur J Med Chem, 2023)
One block for each compound: values may come before it.

Tests used:
[1] = target: T1, Mitogen-activated protein kinase kinase kinase 5 (Homo sapiens, UniProt Q99683); assay: Inhibition of ASK1 (unknown origin) preincubated with compound for 30 mins followed by ATP addition and measured after 120 mins by HTRF analysis
T1 sequence (Q99683 whole entry): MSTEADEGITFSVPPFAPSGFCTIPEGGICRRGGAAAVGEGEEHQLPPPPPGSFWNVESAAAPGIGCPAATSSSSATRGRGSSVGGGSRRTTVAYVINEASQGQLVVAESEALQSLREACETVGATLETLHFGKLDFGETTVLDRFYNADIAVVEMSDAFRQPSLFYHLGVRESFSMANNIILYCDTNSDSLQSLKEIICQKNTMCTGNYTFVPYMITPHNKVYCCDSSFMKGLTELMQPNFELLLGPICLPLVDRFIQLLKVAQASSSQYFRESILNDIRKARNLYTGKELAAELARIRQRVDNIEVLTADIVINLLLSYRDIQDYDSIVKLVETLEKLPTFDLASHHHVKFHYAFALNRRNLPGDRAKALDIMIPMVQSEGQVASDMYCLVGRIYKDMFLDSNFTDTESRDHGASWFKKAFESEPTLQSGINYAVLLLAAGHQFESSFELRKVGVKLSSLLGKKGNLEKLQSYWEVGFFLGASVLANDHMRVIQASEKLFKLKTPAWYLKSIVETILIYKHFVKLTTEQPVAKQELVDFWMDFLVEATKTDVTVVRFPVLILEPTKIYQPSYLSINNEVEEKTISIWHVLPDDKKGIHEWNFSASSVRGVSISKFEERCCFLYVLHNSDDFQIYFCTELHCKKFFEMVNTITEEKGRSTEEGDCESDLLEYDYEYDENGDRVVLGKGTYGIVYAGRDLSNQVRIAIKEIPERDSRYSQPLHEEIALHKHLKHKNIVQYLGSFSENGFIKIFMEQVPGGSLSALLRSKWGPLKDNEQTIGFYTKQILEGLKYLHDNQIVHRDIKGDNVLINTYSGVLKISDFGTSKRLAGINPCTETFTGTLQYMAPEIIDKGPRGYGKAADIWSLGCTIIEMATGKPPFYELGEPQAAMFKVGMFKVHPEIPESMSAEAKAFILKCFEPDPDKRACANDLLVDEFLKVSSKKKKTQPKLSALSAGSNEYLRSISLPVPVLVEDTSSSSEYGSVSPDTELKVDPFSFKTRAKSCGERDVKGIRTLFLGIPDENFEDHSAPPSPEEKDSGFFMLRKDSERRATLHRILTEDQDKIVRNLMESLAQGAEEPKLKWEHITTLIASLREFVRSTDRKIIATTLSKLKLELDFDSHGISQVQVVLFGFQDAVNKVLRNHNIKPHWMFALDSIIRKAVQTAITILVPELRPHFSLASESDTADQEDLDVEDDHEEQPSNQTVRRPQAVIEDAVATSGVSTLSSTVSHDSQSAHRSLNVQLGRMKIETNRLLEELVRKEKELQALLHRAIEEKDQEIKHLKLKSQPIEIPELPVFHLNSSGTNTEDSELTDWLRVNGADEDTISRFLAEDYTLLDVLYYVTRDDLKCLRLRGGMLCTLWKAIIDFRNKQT

[2] = target: T1, Mitogen-activated protein kinase kinase kinase 5; assay: Inhibition of N-terminal his-tagged human ASK1 (649 to 946 residues) expressed in Escherichia coli using [gamma-32p]ATP as substrate by liquid scintillation counting analysis
[3] = target: T1, Mitogen-activated protein kinase kinase kinase 5; assay: Inhibition of ASK1 (unknown origin)
[4] = target: T1, Mitogen-activated protein kinase kinase kinase 5; assay: Inhibition of human recombinant ASK1 by HTRF assay
[5] = target: T1, Mitogen-activated protein kinase kinase kinase 5; assay: Inhibition of ASK1 (unknown origin) incubated for 0.5 to 5 hrs by TR-FRET assay
[6] = Half life in Sprague-Dawley rat at 1 mg/kg, iv by LC-MS/MS analysis; assay type: ADME, organism-based; conditions: in vivo
[7] = Oral bioavailability in Sprague-Dawley rat at 1 mg/kg by LC-MS/MS analysis; assay type: ADME, organism-based; conditions: in vivo
[8] = Apparent permeability of compound across apical to basolateral side in human Caco2 cells; assay type: ADME, cell-based; conditions: Caco-2
[9] = target: T1, Mitogen-activated protein kinase kinase kinase 5; assay: Inhibition of ASK1 in HEK293 cells; assay type: cell-based
[10] = target: T1, Mitogen-activated protein kinase kinase kinase 5; assay: Inhibition of human ASK1 using STK-substrate biotin as substrate by TR-FRET assay
[11] = Half life in rat 5 mg/kg, po measured upto 24 hrs by LC-MS/MS analysis; assay type: ADME, organism-based; conditions: in vivo
[12] = Cmax in rat 5 mg/kg, po measured upto 24 hrs by LC-MS/MS analysis; assay type: ADME, organism-based; conditions: in vivo
[13] = AUC (0 to t) in rat 5 mg/kg, po measured upto 24 hrs by LC-MS/MS analysis; assay type: ADME, organism-based; conditions: in vivo
[14] = target: T1, Mitogen-activated protein kinase kinase kinase 5; assay: Inhibition of full length GST-tagged recombinant human ASK1 using MBP as substrate incubated for 20 mins by cell based assay
[15] = target: T1, Mitogen-activated protein kinase kinase kinase 5; assay: Inhibition of human ASK1
[16] = Toxicity in C57BL/6J mouse harboring SOD1 mutant assessed as animal survival (reference value: 1.06%); conditions: in vivo, read-out: Activity
[17] = target: 3-phosphoinositide-dependent protein kinase 1 (Homo sapiens) (UniProt O15530); assay: Inhibition of PDK1 (unknown origin) at 10 uM relative to control
Chain of 3-phosphoinositide-dependent protein kinase 1 (Homo sapiens) (O15530 whole entry, looked up): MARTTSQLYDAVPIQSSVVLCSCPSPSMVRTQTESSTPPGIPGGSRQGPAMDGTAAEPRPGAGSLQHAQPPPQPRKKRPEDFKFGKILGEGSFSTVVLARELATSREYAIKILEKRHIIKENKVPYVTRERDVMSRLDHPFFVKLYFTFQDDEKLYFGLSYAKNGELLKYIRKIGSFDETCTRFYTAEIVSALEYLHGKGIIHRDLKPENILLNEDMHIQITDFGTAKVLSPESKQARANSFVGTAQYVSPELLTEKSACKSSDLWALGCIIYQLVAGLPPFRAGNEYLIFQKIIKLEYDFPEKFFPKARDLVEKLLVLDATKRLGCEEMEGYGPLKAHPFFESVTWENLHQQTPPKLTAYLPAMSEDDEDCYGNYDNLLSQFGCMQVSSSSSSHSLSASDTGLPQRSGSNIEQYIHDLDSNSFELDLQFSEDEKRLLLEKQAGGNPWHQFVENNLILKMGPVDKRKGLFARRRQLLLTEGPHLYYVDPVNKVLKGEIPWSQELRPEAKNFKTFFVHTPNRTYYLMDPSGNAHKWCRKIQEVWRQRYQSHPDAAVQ

- IC50 [1]: 0.9 nM
SMILES: CC(C)n1cnnc1-c1cccc(-n2ncc3ccc(-n4cnc(C5CC5)c4)cc3c2=O)n1

- IC50 [2]: 449 nM
SMILES: C=C(C)[C@@H]1CC[C@]2(C(=O)O)CC[C@]3(C)[C@H](C[C@@H](O)[C@@H]4[C@@]5(C)C(CC(=O)O)OC(C)(C)C5CC[C@]43C)[C@@H]12 (stereo partly specified)

- IC50 [2]: 2.02 nM
SMILES: C=C(C)[C@@H]1CC[C@]2(C(=O)N(CCOCCOn3nnc4ccccc43)C(=O)OC(C)(C)C)CC[C@]3(C)[C@H](C[C@H]4OC(=O)C[C@@H](O)[C@]5(C)[C@@H]4[C@@]3(C)CC[C@H]5C(=C)C)[C@@H]12

SMILES: CC(C)n1cnnc1-c1cccc(NC(=O)c2cc3c(cc2F)CNCc2nc(C4CC4)cn2-3)n1
- IC50 [3]: < 10 nM

- IC50 [2]: 5.08 nM
SMILES: C=C(C)[C@@H]1CC[C@]2(C(=O)On3nnc4ccccc43)CC[C@]3(C)[C@H](C[C@@H](O)[C@@H]4[C@@]5(C)C(CC(=O)OCC)OC(C)(C)C5CC[C@]43C)[C@@H]12 (stereo partly specified)

- IC50 [4]: ≤ 50 nM
SMILES: Cc1ccc(-c2cnc(-c3cccc(-c4nncn4C(C)C)n3)o2)c(F)c1

- IC50 [3]: < 10 nM
SMILES: CC(C)n1cnnc1-c1cccc(NC(=O)c2cc3c(cc2F)COCc2nc(C4CC4)cn2-3)n1

- IC50 [5]: 6.7 nM
SMILES: Cc1cc(F)c(C(=O)Nc2cccc(-c3nnc4[nH]ccn34)n2)cc1-n1cnc(C2CC2)c1

- IC50 [3]: 1.83 nM
SMILES: CC(C)n1cnnc1-c1cccc(N2CCc3ccc(-n4cnc(C5CC5)c4)cc3C2=O)n1

- IC50 [3]: 1.78 nM
SMILES: CC(C)n1cnnc1-c1cccc(N2Cc3cc(-n4cnc(C5CC5)c4)ccc3C2=O)n1

- IC50 [1]: 1.14 nM
SMILES: CC(C)n1cnnc1-c1cccc(-c2coc3ccc(-n4cnc(C5CC5)c4)cc3c2=O)n1

- half-life [6]: 35.4 min
- bioavailability [7]: 11%
- Papp A→B [8]: 3.1 ×10⁻⁶ cm/s
- EC50 [9]: 3.4 nM
SMILES: CC(C)n1cnnc1-c1cccc(NC(=O)c2cccc(-n3cnc(C4CC4)c3)c2)n1

SMILES: CC(C)n1cnnc1-c1cccc(NC(=O)c2cc3c(cc2F)CNCc2c(C4CC4)ncn2-3)n1
- IC50 [3]: < 10 nM

- EC50 [10]: ≤ 500 nM
SMILES: Cc1ccc(NC(=O)Nc2cccc(-c3nncn3C(C)C)n2)c(F)c1

- IC50 [5]: 6.1 nM
SMILES: Cc1cc(F)c(C(=O)Nc2cccc(-c3nnc4n3CCOC4)n2)cc1-n1cnc(C2CC2)c1

- IC50 [3]: 5.91 nM
SMILES: CC(C)n1cnnc1-c1cccc(N2CC(C)(C)c3ccc(-n4cnc(C5CC5)c4)cc3C2=O)n1

- half-life [11]: 78 min
- IC50 [5]: 3.9 nM
- Cmax [12]: 8190 ng/mL
- AUC(0-t) at 24 h [13]: 19200 ng·h/mL
SMILES: Cc1cc2c(cc1-n1cnc(C3CC3)c1)C(=O)N(c1cccc(-c3nncn3C(C)C)n1)C2

SMILES: C=C(C)[C@@H]1CC[C@]2(C(=O)O)CC[C@]3(C)[C@H](C[C@H]4OC(=O)C[C@@H](O)[C@]5(C)[C@@H]4[C@@]3(C)CC[C@H]5C(=C)C)[C@@H]12
- IC50 [2]: 370 nM

- IC50 [1]: 1.37 nM
SMILES: CC(C)n1cnnc1-c1cccc(-c2cn(C)c3ccc(-n4cnc(C5CC5)c4)cc3c2=O)n1

- IC50 [14]: ≤ 100 nM
SMILES: Cc1cc(F)c(C(=O)Nc2cccc(-c3nnc4n3CCCC4)n2)cc1-n1cnc(C2CC2)n1

- IC50 [5]: 14 nM
SMILES: Cc1cc(F)c(C(=O)Nc2cccc(-c3nnc4ncncn34)n2)cc1-n1cnc(C2CC2)c1

SMILES: COc1cc2nccc(Oc3ccc(NC(=O)c4cn(C(C)C)c5c(c4=O)CCC=C5)cc3)c2cc1OC
- IC50 [15]: 6 nM
- survival [16]: 1.09%

- IC50 [1]: 4.26 nM
SMILES: CC(C)n1cnnc1-c1cccc(N2CCOc3ccc(-n4cnc(C5CC5)c4)cc3C2=O)n1

- IC50 [3]: 2660 nM
- inhibition [17]: 42.9%
SMILES: Cn1nc(C(F)(F)F)c2cc(C(=O)Nc3cccc(-c4nncn4C4CC4)n3)c(=O)[nH]c21

- IC50 [14]: ≤ 100 nM
- IC50 [5]: 18 nM
SMILES: Cc1cc(F)c(C(=O)Nc2cccc(-c3nnc4n3CCCC4)n2)cc1-n1cnc(C2CC2)c1

- IC50 [3]: 2.2 nM
SMILES: Cc1cc2c(cc1-n1cnc(C3CC3)c1)C(=O)N(c1cccc(-c3nncn3C(C)C)n1)CC2

- IC50 [14]: > 100 nM
SMILES: Cc1cc(F)c(C(=O)Nc2cccc(-c3nnc4n3CCCC4)n2)cc1-n1cc(C2CC2)nn1
